Measured values as given in patent US8343539B2, “Compounds that bind α5β1 integrin and methods of use” (Regents of the University of Minnesota, priority 2006, dated 2013).
Where no end group is shown, it is not given here. (C16)2‑Glu‑C2 = lipid tail

Assays:
α5β1 integrin = α5β1 integrin (Homo sapiens, UniProt P05556+P08648); settings: inferred from literature on polyglycine linkers (Petrie 2006); cited from earlier work
HUVECs = test: HUVEC adhesion timed experiments on LB membranes (Example 2); type: cell-based, human
Procedure: Surface preparation: Each peptide-amphiphile was used to form homogenous LB membranes as in previous work (Kokkoli Langmuir 2004; 20:2397-2404), except that both the water and 15 mm mica disks used had been autoclaved for sterility. All depositions were done at a surface pressure between 41 and 47 mN/m, well below the collapse pressure and in the liquid-condensed or solid phase. Approximately 90 minutes before cells were seeded on the LB films to begin cell adhesion experiments, mica surfaces were transferred into 1× phosphate buffered saline (PBS), with particular care taken to ensure films were not exposed to air. After 5-10 minutes of equilibration, surfaces were transferred into 24-well plates containing a supplemented MCDB-131 basal media (Sigma), as described in Example 1. Following surface transfer, 24-well plates were moved to a 37° C., 5% CO2 incubator for 45-60 minutes. As a control, 22 mm diameter human fibronectin-coated coverslips (BD Biosciences), referred to as FN, were put into 12-well plates, covered with 2 ml of the supplemented media, and also incubated for 45-60 minutes.
Cell culture: Human umbilical vein endothelial cells, HUVECs (Cambrex Corporation), were cultured as described previously (see Example 1). Only cells from passage 3 were used in all studies.
Cell adhesion experiments: Flasks of HUVECs with at least 90% confluency were washed with 1×PBS, trypsinized with 0.25% Trypsin-EDTA (Fisher Scientific), and neutralized with 2% fetal bovine serum in MCDB-131 basal media. The suspended cells from all flasks were placed in one 50 ml centrifuge tube and centrifuged at 1000 rpm for 5 minutes. The media was removed and the cell pellet was resuspended in the supplemented media described above. A hemocytometer was used to count the cells and then 497 cells/mm^2 were seeded onto both LB and FN surfaces. Surfaces were incubated with cells at 37° C., 5% CO2 for 1, 4, or 12 hours. Cell adhesion following these times was determined using the CyQuant cell proliferation assay kit (Molecular Probes), which measures the fluorescence of a cellular nucleic acid-binding dye using the SpectraMAX GeminiXS plate reader (Molecular Devices). Standard calibration curves were created within each experiment for both 12- and 24-well plates.

α5β1 integrin, sequence (P08648 42-894 limits assumed): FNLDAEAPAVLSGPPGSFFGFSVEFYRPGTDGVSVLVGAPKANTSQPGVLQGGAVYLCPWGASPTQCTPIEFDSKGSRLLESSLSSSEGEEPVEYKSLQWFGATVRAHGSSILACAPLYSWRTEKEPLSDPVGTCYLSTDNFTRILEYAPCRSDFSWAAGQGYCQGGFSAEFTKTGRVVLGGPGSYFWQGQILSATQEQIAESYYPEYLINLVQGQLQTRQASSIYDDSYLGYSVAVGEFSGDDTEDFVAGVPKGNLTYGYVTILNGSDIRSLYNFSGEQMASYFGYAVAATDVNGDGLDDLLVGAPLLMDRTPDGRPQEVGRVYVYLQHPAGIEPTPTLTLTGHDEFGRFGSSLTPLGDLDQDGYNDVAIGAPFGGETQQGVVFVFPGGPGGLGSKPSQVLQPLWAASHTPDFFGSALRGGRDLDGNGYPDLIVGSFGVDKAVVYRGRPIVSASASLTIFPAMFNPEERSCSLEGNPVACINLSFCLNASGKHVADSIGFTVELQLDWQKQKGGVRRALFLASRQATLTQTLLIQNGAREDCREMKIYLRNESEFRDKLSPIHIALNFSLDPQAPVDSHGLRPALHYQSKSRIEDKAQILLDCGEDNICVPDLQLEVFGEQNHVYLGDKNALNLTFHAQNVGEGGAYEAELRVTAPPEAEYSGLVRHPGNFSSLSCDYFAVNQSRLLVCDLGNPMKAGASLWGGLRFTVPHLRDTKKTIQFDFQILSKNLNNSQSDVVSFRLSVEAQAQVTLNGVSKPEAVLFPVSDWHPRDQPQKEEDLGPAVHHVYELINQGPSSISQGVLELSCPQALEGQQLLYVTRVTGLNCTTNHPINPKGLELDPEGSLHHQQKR
α5β1 integrin, sequence (P08648 895-1049 partner limits assumed): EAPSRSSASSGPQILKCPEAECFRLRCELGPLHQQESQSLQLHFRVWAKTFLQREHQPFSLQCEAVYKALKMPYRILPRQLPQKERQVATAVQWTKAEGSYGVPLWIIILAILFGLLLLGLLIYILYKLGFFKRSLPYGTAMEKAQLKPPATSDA
α5β1 integrin, sequence (P05556 21-798): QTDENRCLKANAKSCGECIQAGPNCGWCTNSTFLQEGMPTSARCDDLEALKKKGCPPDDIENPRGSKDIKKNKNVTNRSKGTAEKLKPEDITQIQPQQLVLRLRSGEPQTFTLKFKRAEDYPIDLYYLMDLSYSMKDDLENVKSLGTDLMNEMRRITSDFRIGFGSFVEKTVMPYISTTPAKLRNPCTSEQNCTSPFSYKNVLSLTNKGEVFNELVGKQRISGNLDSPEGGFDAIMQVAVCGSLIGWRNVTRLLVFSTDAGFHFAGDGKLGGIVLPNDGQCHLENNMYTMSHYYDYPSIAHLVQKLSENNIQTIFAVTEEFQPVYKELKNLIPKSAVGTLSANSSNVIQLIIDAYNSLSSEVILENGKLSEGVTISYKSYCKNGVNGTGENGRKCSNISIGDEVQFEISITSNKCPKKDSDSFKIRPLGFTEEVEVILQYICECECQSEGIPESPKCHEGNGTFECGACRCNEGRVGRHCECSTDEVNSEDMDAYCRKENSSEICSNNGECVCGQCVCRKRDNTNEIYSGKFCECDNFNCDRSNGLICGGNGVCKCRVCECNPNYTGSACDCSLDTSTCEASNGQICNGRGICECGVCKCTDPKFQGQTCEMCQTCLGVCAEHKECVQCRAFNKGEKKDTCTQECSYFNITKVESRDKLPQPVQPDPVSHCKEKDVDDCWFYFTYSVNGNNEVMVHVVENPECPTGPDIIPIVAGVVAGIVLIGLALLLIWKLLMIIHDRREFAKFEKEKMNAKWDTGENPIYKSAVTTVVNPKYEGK

## (C16)2-Glu-C2-KSSPHSRNGGGGGGGGGGRGDSP ({(C16)2‑Glu‑C2}-KSSPHSRNGGGGGGGGGGRGDSP) [Pr_c]
α5β1 integrin
  Specificity for the α5β1 integrin: not specific to the α5β1 integrin
HUVECs; 1, 4 and 12 hours
  HUVEC adhesion level (description): high adhesion at 1 hour
HUVECs; up to 12 hours
  Maintenance / decay of HUVEC adhesion over time: not maintained at longer time periods
